Where “and” joins values, the source holds several entries; their conditions need not be identical. Equal values may be shown once. Values belong to the compound of their own block, whether it stands above or below them.
How the values were obtained:
[1] = biological target: T1, Papain (Carica papaya, UniProt P00784); experiment: Kinetic constant Apparent binding constant (Ki`) for the inhibition of papain conducted in 0.1 M phosphate, pH 6.8, at 30 degree C
T1 sequence (P00784 whole entry): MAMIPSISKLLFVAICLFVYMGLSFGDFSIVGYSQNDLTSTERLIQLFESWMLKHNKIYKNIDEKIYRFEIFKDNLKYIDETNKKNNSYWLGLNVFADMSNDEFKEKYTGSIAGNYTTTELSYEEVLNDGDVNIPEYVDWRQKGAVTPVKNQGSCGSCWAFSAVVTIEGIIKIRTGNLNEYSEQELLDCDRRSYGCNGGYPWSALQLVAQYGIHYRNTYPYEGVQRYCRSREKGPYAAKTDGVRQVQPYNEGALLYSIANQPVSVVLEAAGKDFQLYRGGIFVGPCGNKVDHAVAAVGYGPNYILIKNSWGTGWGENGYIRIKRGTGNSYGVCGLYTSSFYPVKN

[2] = biological target: T2, Papain (Carica papaya) (UniProt P00784); experiment: Kinetic constant First order rate of inactivation (K3) for the inhibition of papain conducted in 0.1 M phosphate, pH 6.8, at 30 degree C
T2 sequence (whole entry): T1 sequence (P00784 whole entry)

[3] = biological target: T2, Papain (Carica papaya); experiment: Inhibition of papain depend on Acid dissociation constant of the protein Papain

SMILES: CC(C)CCNC(=O)[C@H](CC(C)C)NC(=O)[C@H]1O[C@@H]1CO
- Ki [1]: 4400 µM
- k3 [2]: 0.019 s⁻¹

SMILES: CC(C)CCNC(=O)[C@H](CC(C)C)NC(=O)[C@H]1O[C@@H]1C(N)=O
- Ki [1]: 51 µM
- k3 [2]: 0.35 s⁻¹

SMILES: CC(=O)[C@H]1O[C@@H]1C(=O)N[C@@H](CC(C)C)C(=O)NCCC(C)C
- Ki [1]: 170 µM
- k3 [2]: 0.47 s⁻¹

Continued, values first:

- Ki [1]: 2.4 µM
- k3 [2]: 0.71 s⁻¹
- pKa [3]: 3.93 and 4.09
SMILES: CC(C)CCNC(=O)[C@H](CC(C)C)NC(=O)[C@H]1O[C@@H]1C(=O)O [E-64C]

- Ki [1]: 52 µM
- k3 [2]: 0.059 s⁻¹
SMILES: CCOC(=O)[C@H]1O[C@@H]1C(=O)N[C@@H](CC(C)C)C(=O)NCCC(C)C [ALOXISTATIN]

- Ki [1]: 6.6 µM
- k3 [2]: 0.67 s⁻¹
SMILES: CC(C)CCNC(=O)[C@H](CC(C)C)NC(=O)[C@H]1O[C@@H]1C(=O)NO
